From patent publication US11078170B2 (Assembly Biosciences, Inc., priority 2017, dated 2021) come the findings set out here.

Usually EC50 stands for the concentration giving half of the maximal effect.

Each structure is given as a SMILES string. Bounds are passed on as bounds.

This test deals with HBV viral production from HepAD38 cells. In words: Activity of test compounds on viral production from HepAD38 cells (viral load by qPCR of HBV core sequence in supernatant). It is filed as cell-based. Conditions: Hepatitis B virus, 120 h, 5 days incubation, HBV DNA in supernatant by qPCR, top concentration 10 μM, read-out: Viral Load EC50 Activity range. The procedure, abridged: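 EC50 and CC50 come from four-parameter fits of supernatant viral load and CellTiter-Glo viability, respectively. Viral load was measured by core-region TaqMan qPCR against HBV DNA standards and compared with DMSO controls. Tet-free HepAD38 cells (50,000/well, 2% FBS) were exposed to compound, highest 10 μM, for 5 days at 37° C.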
As to `CN1C(C(=O)Nc2ccc(F)c(Cl)c2)CC(c2cc(-c3ccc(F)cc3)cs2)NS1(=O)=O` (stereo not drawn) [HBV-CSU-239], the EC50 is less than 1000 nM.
The figure for `COc1ccc(-c2ccc([C@@H]3C[C@H](C(=O)Nc4ccc(F)c(Cl)c4)N(C)S(=O)(=O)N3)s2)cc1` [HBV-CSU-240-ISO-II] is 1000 to 5000 nM; for `COc1ccc(-c2ccc([C@H]3C[C@@H](C(=O)Nc4ccc(F)c(Cl)c4)N(C)S(=O)(=O)N3)s2)cc1` [HBV-CSU-240-ISO-I] it is less than 1000 nM; for `COc1ccc(-c2csc([C@@H]3C[C@H](C(=O)Nc4ccc(F)c(Cl)c4)N(C)S(=O)(=O)N3)c2)cc1` [HBV-CSU-241-ISO-II] it is 1000 to 5000 nM.
The figure for `COc1ccc(-c2csc([C@H]3C[C@@H](C(=O)Nc4ccc(F)c(Cl)c4)N(C)S(=O)(=O)N3)c2)cc1` [HBV-CSU-241-ISO-I] is less than 1000 nM.
The figure for `COc1ccc(-c2csc(C3CC(C(=O)Nc4ccc(F)c(Cl)c4)N(C)S(=O)(=O)N3)c2)cc1` (stereo not drawn) [HBV-CSU-241] is less than 1000 nM.
Regarding `CN1[C@H](C(=O)Nc2ccc(F)c(Cl)c2)C[C@H](c2ccc(-c3ccc(F)cn3)s2)NS1(=O)=O` [HBV-CSU-242-ISO-I, Cis-N-(3-chloro-4-fluorophenyl)-5-(5-(5-fluoropyridin-2-yl)thiophen-2-yl)-2-methyl-1,2,6-thiadiazinane-3-carboxamide 1,1-dioxide], the EC50 was less than 1000 nM.
Take `CN1[C@@H](C(=O)Nc2ccc(F)c(Cl)c2)C[C@@H](c2ccc(-c3ccc(F)cn3)s2)NS1(=O)=O` [HBV-CSU-242-ISO-II, Cis-N-(3-chloro-4-fluorophenyl)-5-(5-(5-fluoropyridin-2-yl)thiophen-2-yl)-2-methyl-1,2,6-thiadiazinane-3-carboxamide 1,1-dioxide]: the EC50 was more than 5000 nM.
Consider `CN1[C@@H](C(=O)Nc2ccc(F)c(Cl)c2)C[C@@H](c2ccc(-c3cn[nH]c3)s2)NS1(=O)=O` [HBV-CSU-244-ISO-II], for which the EC50 is less than 1000 nM.
In the case of `CN1[C@H](C(=O)Nc2ccc(F)c(Cl)c2)C[C@H](c2ccc(-c3cn[nH]c3)s2)NS1(=O)=O` [HBV-CSU-244-ISO-I], the EC50 is less than 1000 nM.
The figure for `CN1C(C(=O)Nc2ccc(F)c(Cl)c2)CC(c2ccc(-c3cn[nH]c3)s2)NS1(=O)=O` (stereo not drawn) [HBV-CSU-244] is less than 1000 nM.
The figure for `CN1[C@@H](C(=O)Nc2ccc(F)c(Cl)c2)C[C@@H](c2cc(-c3cn[nH]c3)cs2)NS1(=O)=O` [HBV-CSU-245-ISO-II] is less than 1000 nM.
Regarding `CN1[C@H](C(=O)Nc2ccc(F)c(Cl)c2)C[C@H](c2cc(-c3cn[nH]c3)cs2)NS1(=O)=O` [HBV-CSU-245-ISO-I], the EC50 is less than 1000 nM.
The figure for `CN1C(C(=O)Nc2ccc(F)c(Cl)c2)CC(c2cc(-c3cn[nH]c3)cs2)NS1(=O)=O` (stereo not drawn) [HBV-CSU-245] is less than 1000 nM.
The figure for `CN1[C@H](C(=O)Nc2ccc(F)c(Cl)c2)C[C@H](c2ccc(-c3cnn(C)c3)cc2)NS1(=O)=O` [HBV-CSU-246-ISO-II, Cis-N-(3-Chloro-4-fluorophenyl)-2-methyl-5-(4-(1-methyl-1H-pyrazol-4-yl)phenyl)-1,2,6-thiadiazinane-3-carboxamide 1,1-dioxide] is less than 1000 nM; for `CN1[C@H](C(=O)Nc2ccc(F)c(Cl)c2)C[C@H](c2cccc(-c3cnn(C)c3)c2)NS1(=O)=O` [HBV-CSU-247-ISO-I, Cis-N-(3-chloro-4-fluorophenyl)-2-methyl-5-(3-(1-methyl-1H-pyrazol-4-yl)phenyl)-1,2,6-thiadiazinane-3-carboxamide 1,1-dioxide] it is more than 5000 nM; for `CN1[C@@H](C(=O)Nc2ccc(F)c(Cl)c2)C[C@@H](c2cccc(-c3cnn(C)c3)c2)NS1(=O)=O` [HBV-CSU-247-ISO-II, Cis-N-(3-chloro-4-fluorophenyl)-2-methyl-5-(3-(1-methyl-1H-pyrazol-4-yl)phenyl)-1,2,6-thiadiazinane-3-carboxamide 1,1-dioxide] it is less than 1000 nM.
The figure for `CN1[C@H](C(=O)Nc2ccc(F)c(Cl)c2)C[C@H](c2ncc(-c3ccc(F)cc3)s2)NS1(=O)=O` [HBV-CSU-248-ISO-I, Cis-N-(3-Chloro-4-fluorophenyl)-5-(5-(4-fluorophenyl)thiazol-2-yl)-2-methyl-1,2,6-thiadiazinane-3-carboxamide 1,1-dioxide] is less than 1000 nM.
With `CN1[C@@H](C(=O)Nc2ccc(F)c(Cl)c2)C[C@@H](c2ncc(-c3ccc(F)cc3)s2)NS1(=O)=O` [HBV-CSU-248-ISO-II, Cis-N-(3-Chloro-4-fluorophenyl)-5-(5-(4-fluorophenyl)thiazol-2-yl)-2-methyl-1,2,6-thiadiazinane-3-carboxamide 1,1-dioxide], the EC50 is more than 5000 nM.
Take `COc1ccc(-c2cnc([C@H]3C[C@@H](C(=O)Nc4ccc(F)c(Cl)c4)N(C)S(=O)(=O)N3)s2)cc1` [HBV-CSU-250-ISO-I, Cis-N-(3-Chloro-4-fluorophenyl)-5-(5-(4-methoxyphenyl)thiazol-2-yl)-2-methyl-1,2,6-thiadiazinane-3-carboxamide 1,1-dioxide]: the EC50 is less than 1000 nM.
The figure for `COc1ccc(-c2cnc([C@@H]3C[C@H](C(=O)Nc4ccc(F)c(Cl)c4)N(C)S(=O)(=O)N3)s2)cc1` [HBV-CSU-250-ISO-II, Cis-N-(3-Chloro-4-fluorophenyl)-5-(5-(4-methoxyphenyl)thiazol-2-yl)-2-methyl-1,2,6-thiadiazinane-3-carboxamide 1,1-dioxide] is 1000 to 5000 nM.
`CN1[C@H](C(=O)Nc2ccc(F)c(Cl)c2)C[C@H](c2ncc(-c3ccc(F)cn3)s2)NS1(=O)=O` [HBV-CSU-252-ISO-I, Cis-N-(3-Chloro-4-fluorophenyl)-5-(5-(5-fluoropyridin-2-yl)thiazol-2-yl)-2-methyl-1,2,6-thiadiazinane-3-carboxamide 1,1-dioxide]: the EC50 is less than 1000 nM.
The figure for `CN1[C@@H](C(=O)Nc2ccc(F)c(Cl)c2)C[C@@H](c2ncc(-c3ccc(F)cn3)s2)NS1(=O)=O` [HBV-CSU-252-ISO-II, Cis-N-(3-Chloro-4-fluorophenyl)-5-(5-(5-fluoropyridin-2-yl)thiazol-2-yl)-2-methyl-1,2,6-thiadiazinane-3-carboxamide 1,1-dioxide] is more than 5000 nM.
The figure for `CN1[C@H](C(=O)Nc2ccc(F)c(Cl)c2)C[C@H](c2ncc(-c3cn[nH]c3)s2)NS1(=O)=O` [HBV-CSU-254-ISO-I, Cis-5-(5-(1H-pyrazol-4-yl)thiazol-2-yl)-N-(3-chloro-4-fluorophenyl)-2-methyl-1,2,6-thiadiazinane-3-carboxamide 1,1-dioxide] is less than 1000 nM.
The figure for `CN1[C@@H](C(=O)Nc2ccc(F)c(Cl)c2)C[C@@H](c2ncc(-c3cn[nH]c3)s2)NS1(=O)=O` [HBV-CSU-254-ISO-II, Cis-5-(5-(1H-pyrazol-4-yl)thiazol-2-yl)-N-(3-chloro-4-fluorophenyl)-2-methyl-1,2,6-thiadiazinane-3-carboxamide 1,1-dioxide] is 1000 to 5000 nM; for `COC(=O)c1ccc(C2CC(C(=O)Nc3ccc(F)c(Cl)c3)N(C)S(=O)(=O)N2)cc1` (stereo not drawn) [HBV-CSU-256, Cis-methyl 4-(5-((3-chloro-4-fluorophenyl)carbamoyl)-6-methyl-1,1-dioxido-1,2,6-thiadiazinan-3-yl)benzoate] it is 1000 to 5000 nM.
Consider `CN1C(C(=O)Nc2ccc(F)c(Br)c2)CC(c2ccc(Br)s2)NS1(=O)=O` (stereo not drawn) [HBV-CSU-257, Cis-N-(3-Bromo-4-fluorophenyl)-5-(5-bromothiophen-2-yl)-2-methyl-1,2,6-thiadiazinane-3-carboxamide 1,1-dioxide], for which the EC50 is less than 1000 nM.
